Series [1] is described as follows: Solubility of the compound at pH 6.8. The class given is physicochemical. The note with it: buffer.
The nature of series [2]: AUC in Sprague-Dawley rat at 10 mg/kg, po by HLPC-MS analysis. The class given is ADME, organism-based. Conditions: in vivo.
Series [3] can be described thus: Lipophilicity, log D of the compound at pH 7.4. The series is classed as physicochemical. The note with it: buffer.
Series [4] is described as follows: Ratio of drug level in brain to plasma in C57BL/6 mouse at 30 mg/kg, po measured at 1 hr by HPLC-MS analysis. The class given is ADME, organism-based. The note with it: brain and plasma, read-out: BPR.
Series [5] can be described thus: Ratio of drug level in brain to plasma in Sprague-Dawley rat at 5 mg/kg, iv by HPLC-MS analysis. The series is classed as ADME, organism-based. Conditions: brain and plasma, read-out: BPR.
Series [6] is described as follows: AUC in Sprague-Dawley rat plasma at 5 mg/kg, iv by HPLC-MS analysis. The series is classed as ADME, organism-based.
Series [7] in a line: AUC in Sprague-Dawley rat brain at 5 mg/kg, iv by HPLC-MS analysis. The series is classed as ADME, organism-based.
A short description of series [8]: AUC (0 to 48 hrs) in HSD athymic nude mouse xenografted with human HCHZ2H1 cells at 200 mg/kg, po administered as single dose by LC-MS/MS analysis. The class given is ADME, organism-based. More on the design: dose 200 mg/kg, time < 48 hr, route oral. The note with it: in vivo. For orientation: A xenograft is tissue or cells of one species grown in another, often human tumour cells in immunodeficient mice.

Series [9] in a line: Cmax in HSD athymic nude mouse xenografted with human HCHZ2H1 cells at 200 mg/kg, po administered as single dose by LC-MS/MS analysis. The class given is ADME, organism-based. More on the design: dose 200 mg/kg, route oral. The note with it: in vivo.
For series [10], the system named is Mus musculus. Kind of series: Unbound AUC (0 to 48 hrs) in HSD athymic nude mouse xenografted with human HCHZ2H1 cells at 200 mg/kg, po administered as single dose by LC-MS/MS analysis. The class given is ADME, organism-based. The note with it: in vivo.
Series [11] has as its system Mus musculus. Kind of series: Unbound Cmax in HSD athymic nude mouse xenografted with human HCHZ2H1 cells at 200 mg/kg, po administered as single dose by LC-MS/MS analysis. Conditions: in vivo. The series is classed as ADME, organism-based.
Series [12] concerns Mus musculus. As to the kind of experiment: Time at which unbound plasma concentration stays above cellular IDH1 R132H mutant inhibitory IC50 in HSD athymic nude mouse xenografted with human HCHZ2H1 cells. Conditions: in vivo. The class given is ADME, organism-based.
Series [13] can be described thus: AUC (0 to 8 hrs) in nude mouse xenografted with human HMEX2838 cells at 30 mg/kg, po administered via gavage as single dose by LC-MS/MS analysis. The class given is ADME, organism-based. More on the design: dose 30 mg/kg, time < 8 hr, route oral. Conditions: in vivo.
The nature of series [14]: AUC (0 to 8 hrs) in nude mouse xenografted with human HMEX2838 cells at 100 mg/kg, po administered via gavage as single dose by LC-MS/MS analysis. The class given is ADME, organism-based. More on the design: time < 8 hr, dose 100 mg/kg, route oral. The note with it: in vivo.
The nature of series [15]: AUC (0 to 24 hrs) in nude mouse xenografted with human HMEX2838 cells at 300 mg/kg, po administered via gavage as single dose by LC-MS/MS analysis. The class given is ADME, organism-based. More on the design: dose 300 mg/kg, time < 24 hr, route oral. The note with it: in vivo.
Series [16] in a line: AUC (0 to 12 hrs) in nude mouse xenografted with human HMEX2838 cells at 30 mg/kg, po bid administered via gavage by LC-MS/MS analysis. The class given is ADME, organism-based. More on the design: time < 12 hr, dose 30 mg/kg, route oral. The note with it: in vivo.
Series [17] in a line: AUC (0 to 12 hrs) in nude mouse xenografted with human HMEX2838 cells at 100 mg/kg, po bid administered via gavage by LC-MS/MS analysis. The class given is ADME, organism-based. More on the design: time < 12 hr, dose 100 mg/kg, route oral. The note with it: in vivo.
Series [18] can be described thus: AUC (0 to 12 hrs) in nude mouse xenografted with human HMEX2838 cells at 300 mg/kg, po bid administered via gavage by LC-MS/MS analysis. More on the design: time < 12 hr, dose 300 mg/kg, route oral. Conditions: in vivo. The class given is ADME, organism-based.
Series [19] in a line: Fraction absorbed of compound by PAMPA. The series is classed as ADME. The note with it: read-out: Fabs. On the technique in general: In PAMPA a lipid-coated filter parts donor from acceptor wells.
Series [20] can be described thus: in vivo. The note with it: C57BL/6, mouse, brain and plasma, po, 30 mg/kg.
Series [21] can be described thus: in vivo. The note with it: Sprague-Dawley, rat, brain and plasma, iv, 5 mg/kg.

Each structure is given as a SMILES string. Values after ≈ are worked out from the molar mass of the structure shown.

Experimental findings from ChEMBL document CHEMBL4130531 (ACS Med Chem Lett, 2017) are described below.

The term solubility denotes how much of the substance goes into solution per volume. Lower therefore signals little dissolved substance. Broadly, the AUC is concentration integrated over time. A higher AUC goes with more exposure. By logD is commonly meant the decadic logarithm of the distribution of all forms, ionised or not, between an organic phase and buffer at a given pH. Higher therefore signals higher lipophilicity. By AUC(0-t) is commonly meant the area under the concentration-time curve up to a stated or last time point. Low values mean low exposure, high ones high exposure. By Cmax is commonly meant the peak of the concentration-time curve.

`Cc1cc(-c2cnc([C@H](C)Nc3nccc(N4C(=O)OC[C@@H]4C(C)C)n3)cn2)ccc1F` gave a solubility in [1] of less than 5 µM.

In [1], `Cc1cc(-c2ccc([C@H](C)Nc3nccc(N4C(=O)OC[C@@H]4C(C)C)n3)nc2)ccn1` displayed a solubility of 430 µM (≈ 180 µg/mL).

Take `Cc1cc(-c2cnc([C@H](C)Nc3nccc(N4C(=O)OC[C@@H]4C(C)C)n3)nc2)ccc1F`: in series [2], the AUC was 0.2 µM·h. The logD in series [3] is 3.4.

In turn, `CC(C)[C@H]1COC(=O)N1c1ccnc(N[C@@H](C)c2ccc(-c3ccnc(C(F)(F)F)c3)cn2)n1` came in with an AUC in series [2] of 1.6 µM·h.

In the case of `Cc1cc([C@H](C)Nc2nccc(N3C(=O)OC[C@@H]3[C@H](C)F)n2)ncc1-c1ccnc(C(F)(F)F)c1`, the Kp at 1 h in series [4] was found to be 0.29. Moreover, the Kp in series [5] is 0.61. In addition, the results for the AUC in series [6], in series [7] and in series [2] were 5.5 µM·h, 3.4 µM·h and 6.2 µM·h, respectively. Moreover, the AUC(0-t) at 48 h in series [8] came out at 149 µM·h. This compound showed a Cmax in series [9] of 16.2 µM. Moreover, in the series on Mus musculus [10], the fAUC was determined as 17.3 µM·h. For the same compound, the fCmax with Mus musculus [11] is 1.88 µM. In the series on Mus musculus [12], the Time was more than 12 h. Besides, the area under the curve AUC(0-t) at 8 h in series [13] turned out to be 10.1 µM·h; in series [14], 71.9 µM·h. Besides, the AUC(0-t) at 24 h in series [15] turned out to be 212 µM·h. In addition, the results for the AUC at 12 h in series [16], in series [17] and in series [18] were 5.4 µM·h, 19.2 µM·h and 88.9 µM·h, respectively. For the same compound, the concentration in solution in [1] (solubility) was 130 µM (≈ 63.8 µg/mL). The compound also had a pH-dependent lipophilicity (logD) in series [3] of 2.8. The Fa in series [19] is 99.3%. This compound had a Kp uu at 1 h in the series “in vivo [20]” of 0.17. Moreover, in “in vivo [21]”, the Kp uu amounted to 0.18.
